From patent US12577196B2 (priority 2019, dated 2026)
In brackets after ≈: the same amount, converted by molar mass. Like-named read-outs stand apart in the source and are kept apart here.

Assays:
[1] = test system: Candida albicans NCTC 885-653; assay type: cell-based; design: unit not given beside the values
Method: (§1) MIC Determination by Broth Micro Dilution
(§2) Standardisation of Inoculum
(§3) The inoculums were mixed.
(§4) Inoculation and Incubation

[2] = assay type: cell-based; conditions: Table 12, strain not named
Method: as §1, §2, §3, §4

[3] = test system: Candida albicans ATCC 10231; assay type: cell-based; conditions: ATCC10231
Method: as §1, §2, §3, §4

[4] = test system: Staphylococcus aureus ATCC 6538; assay: MIC determination by broth micro dilution (Example 5); assay type: cell-based; conditions: ATCC6538; Staphylococcus aureus ATCC 6538, 4.5×10^3 Cfu/Ml
Method: Minimum Inhibitory Concentration (MIC) Determination by Broth Micro Dilution
as §2
The suspensions were mixed. […] The inoculums were 30 mixed.
as §4
100 μl of the initial concentration of the sample was added to the first well.
Staphylococcus aureus ATCC 6538 4.5×10^3 Cfu/Ml

in vitro = conditions: human
[5] = test system: Salmonella enterica serovar Typhimurium ATCC 14028

| SMILES | MIC [3] | MIC [4] | MIC ([5]; Salmonella enterica) | other results |
| --- | --- | --- | --- | --- |
| Cc1ccc(C(C)C)c(OC(=O)C[N+](C)(C)CCCCCCCCCC[N+](C)(C)CC(=O)Oc2cc(C)ccc2C(C)C)c1 [Formula V, N1,N10-bis(2-(2-isopropyl-5-methylphenoxy)−2-oxoethyl)-N1,N1,N10,N10-tetramethyldecane-1,10-diaminium dichloride] | 3.9 to 7.8 µg/mL |  |  | MIC (Table 11, head not given) [1]: 3.9-7.8; MIC [2]: 0.98 µg/mL |
| Cc1ccc(C(C)C)c(OC(=O)C[N+](C)(C)CCCCCCCCCC[N+](C)(C)CCCCCCCCCC[N+](C)(C)CC(=O)Oc2cc(C(C)C)ccc2C)c1.[Br-].[Cl-].[Cl-] [Comparative compound 1, reference compound] |  | 1.95 µg/mL |  |  |
| Cc1ccc(C(C)C)cc1OC(=O)C[N+](C)(C)CCCCCCCCCC[N+](C)(C)CC(=O)Oc1cc(C(C)C)ccc1C [Formula IV, N1,N10-bis(2-(5-isopropyl-2-methylphenoxy)−2-oxoethyl)-N1,N1,N10,N10-tetramethyldecane-1,10-diaminium dichloride] | 3.9 to 7.8 µg/mL |  | 3.9 µg/mL | CC50 (in vitro): > 120 µg/mL; MIC ([5]; Salmonella enterica serovar Typhimurium ATCC 14028 (log 4 conditions)): 3.9 |
| CN[C@H](CC(C)C)C(=O)N[C@H]1C(=O)N[C@@H](CC(N)=O)C(=O)N[C@H]2C(=O)N[C@H]3C(=O)N[C@H](C(=O)N[C@H](C(=O)O)c4cc(O)cc(O)c4-c4cc3ccc4O)[C@H](O)c3ccc(c(Cl)c3)Oc3cc2cc(c3O[C@@H]2O[C@H](CO)[C@@H](O)[C@H](O)[C@H]2O[C@H]2C[C@](C)(N)[C@H](O)[C@H](C)O2)Oc2ccc(cc2Cl)[C@H]1O [Vancomycin, reference compound] |  |  | 78 µg/mL (≈ 53.8 µM) |  |
| Cc1ccc(C(C)C)c(OC(=O)C[N+](C)(C)CCCCCCCCCC[N+](C)(C)CCCCCCCCCC[N+](C)(C)CC(=O)Oc2cc(C)ccc2C(C)C)c1 [Formula VII, N1-(2-(2-isopropyl-5-methylphenoxy)−2-oxoethyl)-N10-(10-((2-(2-isopropyl-5-methylphenoxy)-2-oxoethyl)dimethylammonio)decyl)-N1,N1,N10,N10-tetramethyldecane-1,10-diaminium bromide dichloride] |  | 0.98 µg/mL |  |  |
